The target in assay [1] is T1, human TRPV1 receptor (hTRPV1) (Homo sapiens (Human), UniProt Q8NER1). In words: Acid activation assay (pH 5.0, FLIPR intracellular Ca2+). Format: cell-based. As to conditions: Table 1; 37.5 μM antagonist, percentage of the maximal pH 5.0-induced response remaining; read-out: hTRPV1 H+ (max % remain). On the procedure: Dulbecco's modified Eagle's medium (DMEM) with 4.5 mg/mL D-glucose, fetal bovine serum, L-glutamine, and 2-morpholinoethanesulfonic acid (MES) were purchased from Sigma-Aldrich Co. (St. Louis, Mo.). Dulbecco's phosphate-buffered saline (DPBS) with Ca^2+, Mg^2+, and 1 mg/mL D-glucose (pH 7.4), Geneticin®, 0.25% trypsin-1 mM EDTA, and penicillin-streptomycin were purchased from Invitrogen Corp. (Carlsbad, Calif.). The FLIPR® Calcium 4 assay kit was purchased from Molecular Devices (Sunnyvale, Calif.).
The cDNAs for the human TRPV1 receptor (hTRPV1) were isolated by reverse transcriptase-polymerase chain reaction (RT-PCR) from human small intestine poly A+RNA supplied by Clontech (Palo Alto, Calif.) using primers designed surrounding the initiation and termination codons identical to the published sequences (Hayes et al. Pain 2000, 88, 205-215). The resulting cDNA PCR products were subcloned into pCIneo mammalian expression vector (Promega) and fully sequenced using fluorescent dye-terminator reagents (Prism, Perkin-Elmer Applied Biosystems Division) and a Perkin-Elmer Applied Biosystems Model 373 DNA sequencer or Model 310 genetic analyzer. Expression plasmids encoding the hTRPV1 cDNA were transfected individually into 1321N1 human astrocytoma cells using Lipofectamine. Forty-eight hours after transfection, the neomycin-resistant cells were selected with growth medium containing 800 μg/mL Geneticin (Gibco BRL). Surviving individual colonies were isolated and screened for TRPV1 receptor activity. Cells expressing recombinant homomeric TRPV1 receptors were maintained at 37° C. in DMEM containing 4 mM L-glutamine, 300 μg/mL G418 (Cal-biochem) and 10% fetal bovine serum under a humidified 5% CO2 atmosphere.
The functional activity of compounds at the TRPV1 receptor was determined by measurement of intracellular Ca^2+ levels ([Ca^2+]i) using the Fluorescence Imaging Plate Reader (FLIPR)^TETRA®. All compounds were tested over a 12-point one-half-log concentration range. Compound stocks, 10 mM, were prepared in DMSO, and diluted serially across a 384-well plate using a Bravo BenchCel workstation (Agilent Technologies, Santa Clara, Calif.).
On the day of the experiment growth medium was removed, and the no-wash FLIPR® Calcium-4 dye (λEX=470-495 nm, λEM=515-575 nm) was added to each well using the Multidrop® dispenser. Cells were incubated for 90-120 minutes in the dark at 25° C. Test compounds were dissolved in DMSO, and plates were prepared using an Agilent Bravo workstation (Agilent Technologies Inc., Santa Clara, Calif.). Compounds were added to the cells 3 minutes prior to the addition of a pH 5.0 solution. Reagents were delivered at a rate of 40 μL/sec, and the final assay volume was 80 μL. Acidic pH solutions were prepared by titration of DPBS/MES with 1 N HCl. The intensity of the fluorescence was captured and digitally transferred to an interfaced PC.

Assay [2] addresses T1, human TRPV1 receptor (hTRPV1). In words: Capsaicin activation assay (FLIPR intracellular Ca2+). The class given is cell-based. As to conditions: Table 1; inhibition of capsaicin-induced intracellular Ca2+ increase, HEK293 cells expressing human TRPV1; read-out: hTRPV1 cap IC50. On the procedure:
Dulbecco's modified Eagle medium (D-MEM) (with 4.5 mg/mL glucose) and fetal bovine serum were obtained from Hyclone Laboratories, Inc. (Logan, Utah). Dulbecco's phosphate-buffered saline (D-PBS) (with 1 mg/mL glucose and 3.6 mg/l Na pyruvate, without phenol red), L-glutamine, hygromycin B, and Lipofectamine® were obtained from Life Technologies (Grand Island, N.Y.). G418 sulfate was obtained from Calbiochem-Novabiochem Corp. (San Diego, Calif.). Capsaicin (8-methyl-N-vanillyl-6-nonenamide) was obtained from Sigma-Aldrich, Co. (St. Louis, Mo.). Fluo-4 AM (N-[4-[6-[(acetyloxy)methoxy]-2,7-difluoro-3-oxo-3H-xanthen-9-yl]-2-[2-[2-[bis[2-[(acetyloxy)methoxy]-2-oxyethyl]amino]-5-methyl phenoxy]ethoxy]phenyl]-N-[2-[(acetyloxy)methoxy]-2-oxyethyl]-glycine, (acetyloxy)methyl ester) was purchased from Molecular Probes (Eugene, Oreg.). […]
The functional activity of compounds at the TRPV1 receptor was determined by measurement of intracellular Ca^2+ levels ([Ca^2+]i) using the Fluorescence Imaging Plate Reader (FLIPR)^TETRA®. All compounds were tested over a 12-point one-third-log concentration range. Compound stocks, 10 mM, were prepared in DMSO, and diluted serially across a 384-well plate using a Bravo BenchCel workstation (Agilent Technologies, Santa Clara, Calif.). A stock concentration of capsaicin (10 mM) was made in DMSO, and diluted in D-PBS to a final concentration of 200 nM (4×). On the day prior to the experiment, recombinant HEK293 cells that stably express human TRPV1 were removed from tissue culture flasks and plated in growth medium into black-walled clear-bottom 384-well Biocoat™ poly-D-lysine assay plates (BD Biosciences, Bedford, Mass.) using a Multidrop® dispenser (ThermoScientific, Waltham, Mass.). On the day of the experiment, growth medium was removed, and the no-wash FLIPR® Calcium-4 dye (λEX=470-495 nm, λEM=515-575 nm; Molecular Devices, Sunnyvale, Calif.) was added to each well using the Multidrop® dispenser. Cells were incubated for 90-120 minutes in the dark at room temperature. Test compounds were added to the cells 3 minutes prior to the addition of 200 nM capsaicin (4×), and the final assay volume was 80 μL. Fluorescence readings were made at 1 to 5 second intervals over the course of the experimental run. The peak increase in relative fluorescence units (minus baseline) was calculated, and expressed as a percentage of the 50 nM capsaicin (control) response.

T1 sequence (Q8NER1 whole entry): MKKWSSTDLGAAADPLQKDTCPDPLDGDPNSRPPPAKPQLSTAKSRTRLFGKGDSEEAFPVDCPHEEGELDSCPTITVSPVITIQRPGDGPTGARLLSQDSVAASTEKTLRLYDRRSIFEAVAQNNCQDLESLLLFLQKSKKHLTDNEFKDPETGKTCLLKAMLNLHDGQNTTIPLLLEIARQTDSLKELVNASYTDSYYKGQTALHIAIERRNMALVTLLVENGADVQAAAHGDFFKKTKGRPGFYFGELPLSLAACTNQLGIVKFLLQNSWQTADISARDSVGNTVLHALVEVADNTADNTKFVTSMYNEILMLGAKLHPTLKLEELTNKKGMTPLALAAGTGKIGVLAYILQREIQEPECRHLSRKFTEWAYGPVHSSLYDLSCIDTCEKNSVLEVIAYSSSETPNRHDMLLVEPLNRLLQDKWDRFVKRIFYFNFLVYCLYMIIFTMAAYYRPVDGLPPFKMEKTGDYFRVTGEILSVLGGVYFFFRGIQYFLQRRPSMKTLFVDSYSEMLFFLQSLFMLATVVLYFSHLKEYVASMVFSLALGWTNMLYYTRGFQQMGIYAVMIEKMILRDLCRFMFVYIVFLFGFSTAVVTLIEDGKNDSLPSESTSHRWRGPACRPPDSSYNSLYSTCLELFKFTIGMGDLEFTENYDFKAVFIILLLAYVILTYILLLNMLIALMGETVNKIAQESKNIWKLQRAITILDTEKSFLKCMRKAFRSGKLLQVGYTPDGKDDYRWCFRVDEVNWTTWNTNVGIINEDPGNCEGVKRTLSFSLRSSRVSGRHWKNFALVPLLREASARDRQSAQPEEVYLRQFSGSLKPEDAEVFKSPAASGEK

As usually defined, the IC50 is the concentration needed to halve the response being measured. Turning to `O=C(Nc1ccc2c(c1)NC(=O)N(CCO)C2)N[C@H]1CC[C@H](c2ccccc2)C1` [Example 114, 1-[3-(2-hydroxyethyl)-2-oxo-1,2,3,4-tetrahydroquinazolin-7-yl]-3-[(1S,3S)-3-phenylcyclopentyl]urea], in assay [1], the remaining activity at 37.5 µM came to 62%. Moreover, the IC50 in assay [2] was 830 nM.
On the same counts, the results for `O=C(Nc1cccc2c1C[C@@H](O)C2)N[C@@H]1CC[C@@H](c2ccccc2F)C1` [Example 88, 1-[(1R,3R)-3-(2-fluorophenyl)cyclopentyl]-3-[(2S)-2-hydroxy-2,3-dihydro-1H-inden-4-yl]urea] are 16% and 20 nM.
On the same counts, the results for `C[C@@]1(c2ccccc2)CC[C@H](NC(=O)Nc2cccc3[nH]ncc23)C1` [Example 72, 1-(1H-indazol-4-yl)-3-[(1S,3R)-3-methyl-3-phenylcyclopentyl]urea] are 22% and 80 nM.
With `O=C(Nc1cccc2c1C[C@H](O)C2)N[C@H]1CC[C@@H](c2cccc(F)c2)C1` [Example 91, 1-[(1S,3R)-3-(3-fluorophenyl)cyclopentyl]-3-[(2R)-2-hydroxy-2,3-dihydro-1H-inden-4-yl]urea], the remaining activity at 37.5 µM in assay [1] came to 63%. Also, in assay [2], the IC50 turned out to be 338 nM.
On the same counts, the results for `O=C(Nc1ccc2c(c1)NC(=O)C(N1CCCOCC1)C2)N[C@@H]1CC[C@H](c2ccccc2)C1` (stereo partly drawn) [Example 143, 1-[3-(1,4-oxazepan-4-yl)-2-oxo-1,2,3,4-tetrahydroquinolin-7-yl]-3-[(1R,3S)-3-phenylcyclopentyl]urea] are 24% and 145 nM.
In the same order, the values of `O=C(Nc1cccc2[nH]ncc12)N[C@H]1CCC[C@H](c2ccccc2)C1` [Example 35, 1-(1H-indazol-4-yl)-3-[(1S,3S)-3-phenylcyclohexyl]urea] are 11% and 292 nM.
In the same order, the values of `O=C(Nc1cccc2c1C[C@@H](O)CC2)N[C@H]1CC[C@@H](c2ccccc2)C1` [Compound B, 1-[(7S)-7-hydroxy-5,6,7,8-tetrahydronaphthalen-1-yl]-3-[(1S,3R)-3-phenylcyclopentyl]urea, reference compound] are 1% and 6 nM.
Consider `O=C(Nc1cccc2[nH]ccc12)N[C@@H]1CC[C@H](c2ccccc2)C1` [Example 137, 1-(1H-indol-4-yl)-3-[(1R,3S)-3-phenylcyclopentyl]urea], for which, in assay [1], the remaining activity at 37.5 µM stood at 42%. The IC50 in assay [2] turned out to be 100 nM.
Regarding `Cn1c(=O)ccc2c(NC(=O)N[C@H]3CC[C@@H](c4ccccc4F)C3)cccc21` [Example 80, 1-[(1S,3R)-3-(2-fluorophenyl)cyclopentyl]-3-(1-methyl-2-oxo-1,2-dihydroquinolin-5-yl)urea], the remaining activity at 37.5 µM in assay [1] worked out at 55%. The IC50 in assay [2] stood at 10 nM.
On the same counts, the results for `Cc1coc([C@H]2CC[C@@H](NC(=O)Nc3cccc4[nH]ncc34)C2)n1` (single isomer, unassigned) [Example 123, 1-(1H-indazol-4-yl)-3-[(1R*,3S*)-3-(4-methyl-1,3-oxazol-2-yl)cyclopentyl]urea] are 29% and 1110 nM.
On the same counts, the results for `Cc1cc2c(NC(=O)N[C@@H]3CC[C@@H](c4ccccc4F)C3)c(F)ccc2cn1` [Example 82, 1-(6-fluoro-3-methylisoquinolin-5-yl)-3-[(1R,3R)-3-(2-fluorophenyl)cyclopentyl]urea] are 12% and 3.3 nM.
As to `C[C@H]1Oc2c(NC(=O)N[C@@H]3CC[C@H](c4ccccc4)C3)cccc2NC1=O` [Example 3, 1-[(2R)-2-methyl-3-oxo-3,4-dihydro-2H-1,4-benzoxazin-8-yl]-3-[(1R,3S)-3-phenylcyclopentyl]urea], the remaining activity at 37.5 µM in assay [1] is 2%. In addition, the IC50 in assay [2] is 55 nM.
In the same order, the values of `O=C(Nc1cccc2c1C[C@H](O)C2)N[C@@H]1CC[C@H](c2ccccc2)C1` [Example 1, 1-[(2R)-2-hydroxy-2,3-dihydro-1H-inden-4-yl]-3-[(1R,3S)-3-phenylcyclopentyl]urea] are 93% and 106 nM.
In the same order, the values of `Cc1coc([C@@H]2CC[C@H](NC(=O)Nc3cccc4[nH]ncc34)C2)n1` (single isomer, unassigned) [Example 122, 1-(1H-indazol-4-yl)-3-[(1S*,3R*)-3-(4-methyl-1,3-oxazol-2-yl)cyclopentyl]urea] are 68% and 20500 nM.
In the same order, the values of `O=C(Nc1cccc2[nH]ncc12)N[C@H]1C[C@@H](c2ccccc2)[C@H](O)[C@@H]1O` [Example 53, 1-((1S,2R,3S,4S)-2,3-dihydroxy-4-phenylcyclopentyl)-3-(1H-indazol-4-yl)urea] are 84% and over 37500 nM.
Take `CC(C)Cc1cc2c(NC(=O)N[C@@H]3CC[C@H](c4ccccc4)C3)c(F)ccc2cn1` [Example 139, 1-[6-fluoro-3-(2-methylpropyl)isoquinolin-5-yl]-3-[(1R,3S)-3-phenylcyclopentyl]urea]: the remaining activity at 37.5 µM in assay [1] stood at 89%. Moreover, the IC50 in assay [2] is over 37500 nM.
As for `O=C(Nc1cccc2[nH]ncc12)N[C@@H]1CCC[C@@H](c2ccc(C(F)(F)F)cc2)C1` [Example 31, 1-(1H-indazol-4-yl)-3-{(1R,3R)-3-[4-(trifluoromethyl)phenyl]cyclohexyl}urea], the remaining activity at 37.5 µM in assay [1] was determined as 35%. The IC50 in assay [2] came out at 1840 nM.
Regarding `Cc1cc2c(NC(=O)N[C@H]3CC[C@@H](c4cccc(F)c4)C3)c(F)ccc2cn1` [Example 85, 1-(6-fluoro-3-methylisoquinolin-5-yl)-3-[(1S,3R)-3-(3-fluorophenyl)cyclopentyl]urea], the remaining activity at 37.5 µM in assay [1] turned out to be 21%. Moreover, the IC50 in assay [2] worked out at 8.9 nM.
In the same order, the values of `O=C(Nc1cccc2[nH]ncc12)N[C@@H]1CCC[C@H](c2ccccc2)C1` [Example 36, 1-(1H-indazol-4-yl)-3-[(1R,3S)-3-phenylcyclohexyl]urea] are 8% and 56 nM.
Take `C[C@H]1Oc2c(NC(=O)N[C@H]3CC[C@H](c4ccccc4)C3)cccc2NC1=O` [Example 10, 1-[(2R)-2-methyl-3-oxo-3,4-dihydro-2H-1,4-benzoxazin-8-yl]-3-[(1S,3S)-3-phenylcyclopentyl]urea]: the remaining activity at 37.5 µM in assay [1] was 3%. Further, the IC50 in assay [2] is 84 nM.
